We go through 26 molecules from patent US20060135480A1, “Derivatives of succinic and glutaric acids and analogs thereof useful as inhibitors of phex” (Enobia Pharma, priority 2002, published 2006).

Structures are written as SMILES.

One may read the IC50 as the concentration that gives 50% inhibition.

For this test, the target named is T1, sPHEX (Homo sapiens, UniProt P78562).
T1 construct: The soluble form of the metallopeptidase PHEX (sPHEX) was purified to homogeneity; made in house
T1 sequence (P78562 53-749 limits assumed): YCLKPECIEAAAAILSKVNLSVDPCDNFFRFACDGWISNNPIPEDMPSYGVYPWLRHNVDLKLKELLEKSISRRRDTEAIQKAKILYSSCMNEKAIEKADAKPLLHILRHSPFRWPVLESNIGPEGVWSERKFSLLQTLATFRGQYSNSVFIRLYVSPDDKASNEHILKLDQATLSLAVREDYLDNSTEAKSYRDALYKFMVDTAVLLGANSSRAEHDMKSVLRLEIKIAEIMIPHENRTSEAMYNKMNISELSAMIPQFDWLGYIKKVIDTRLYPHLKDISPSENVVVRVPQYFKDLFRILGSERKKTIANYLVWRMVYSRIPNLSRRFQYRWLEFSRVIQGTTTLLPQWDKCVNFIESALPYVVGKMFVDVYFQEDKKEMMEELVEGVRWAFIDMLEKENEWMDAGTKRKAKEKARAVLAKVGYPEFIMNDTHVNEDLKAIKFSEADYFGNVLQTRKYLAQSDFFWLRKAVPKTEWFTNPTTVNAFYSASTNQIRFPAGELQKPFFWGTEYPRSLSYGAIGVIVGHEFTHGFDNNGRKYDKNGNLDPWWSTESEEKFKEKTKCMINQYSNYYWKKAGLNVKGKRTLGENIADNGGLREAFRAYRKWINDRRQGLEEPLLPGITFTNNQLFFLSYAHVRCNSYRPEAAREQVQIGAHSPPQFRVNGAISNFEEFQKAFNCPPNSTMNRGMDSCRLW
Briefly: sPHEX inhibitor IC50 determination using a fluorogenic substrate (Abz-GFSDYK-Dnp, S3). It counts as biochemical. The following applies: fluorogenic substrate 20 μM, 100 ng sPHEX, pH 6.5. How it is done: The soluble form of the metallopeptidase PHEX (sPHEX) was purified to homogeneity according to the methods of Boileau and Crine (WO 00/50580). sPHEX quantity was measured with the Bradford assay (BioRad) using BSA as a standard.
sPHEX activity was determined using a fluorogenic substrate in which an increase of fluorescence was proportional to substrate conversion to products.
S3 was synthesized at Dr. Gilles Lajoie's laboratories (University of Western Ontario, Canada) by standard solid phase peptide synthesis. The fluorescent reaction product was excited at 320 nm to fluoresce at 420 nm. Fluorescence was recorded at 420 nm every five minutes over a one-hour period on a fluorescence plate reader (Perkin-Elmer, HTS-7000) to calculate the initial rate of the reaction. Typically, the reaction was carried out in 200 μl of buffer M (50 mM Mes(NaOH) pH 6.5, 150 mM NaCl) containing 100 ng of purified sPHEX and 20 μM of fluorigenic substrate to initiate the reaction. Enzymatic activity was determined by subtracting either the initial rate of substrate in buffer (solvolysis), or the typical reaction rate in which 5 mM EDTA was added prior to initiating the reaction.
sPHEX inhibitor IC50 determinations were done using the tested inhibitor at various concentrations coming from a serial dilution (usually ranging from 10^−3 M to 10^−12 M) in the reaction described above. IC50 values were calculated using the iterative four parameters non-linear regression formula from the GraphPad™ software (Prism).
`O=C(O)C[C@H](NC(=O)CS)C(=O)N[C@@H](Cc1c[nH]c2ccccc12)C(=O)O` [Example 87, N-[1-Carboxy-2-(1H-indol-3-yl)-ethyl]-3-(2-mercapto-acetylamino)-succinamic acid] registered an IC50 of 600 nM.

The molecule `O=C(O)C[C@H](NC(=O)[C@@H](S)Cc1ccccc1)C(=O)N[C@@H](Cc1c[nH]c2ccccc12)C(=O)O` [Example 89, N-[1-Carboxy-2-(1H-indol-3-yl)-ethyl]-3-(2-mercapto-3-phenyl-propionylamino)-succinamic acid] came in with an IC50 of 11 nM. Compared with the last molecule, the IC50 is about 55-fold lower.

Molecule `C[C@H](S)C(=O)N[C@@H](CC(=O)O)C(=O)N[C@@H](Cc1c[nH]c2ccccc12)C(=O)O` [Example 90, N-[1-Carboxy-2-(1H-indol-3-yl)-ethyl]-3-(2-mercapto-propionylamino)-succinamic acid] yielded a half-maximal inhibitory concentration (IC50) of 68 nM.

Take `CC(C)C[C@H](S)C(=O)N[C@@H](CC(=O)O)C(=O)N[C@@H](Cc1c[nH]c2ccccc12)C(=O)O` [Example 91, N-[1-Carboxy-2-(1H-indol-3-yl)-ethyl]-3-(2-mercapto-4-methyl-pentanoylamino)-succinamic acid]: it took 94 nM to reach half-maximal inhibition (IC50).

The molecule `CC(C)[C@H](S)C(=O)N[C@@H](CC(=O)O)C(=O)N[C@@H](Cc1c[nH]c2ccccc12)C(=O)O` [Example 92, N-[1-Carboxy-2-(1H-indol-3-yl)-ethyl]-3-(2-mercapto-3-methyl-butyrylamino)-succinamic acid] gave a concentration for half-maximal inhibition (IC50) of 5 nM.

`O=C(O)C[C@H](NC(=O)[C@@H](S)CO)C(=O)N[C@@H](Cc1c[nH]c2ccccc12)C(=O)O` [Example 93, N-[1-Carboxy-2-(1H-indol-3-yl)-ethyl]-3-(3-hydroxy-2-mercapto-propionylamino)-succinamic acid]: the midpoint of inhibition, the IC50, lay at 48 nM. This IC50 is about 9.6-fold higher than that of the molecule before.

Regarding `C[C@H](O)[C@H](S)C(=O)N[C@@H](CC(=O)O)C(=O)N[C@@H](Cc1c[nH]c2ccccc12)C(=O)O` [Example 94, N-[1-Carboxy-2-(1H-indol-3-yl)-ethyl]-3-(3-hydroxy-2-mercapto-butyrylamino)-succinamic acid], the IC50 was found to be 4 nM.

For the molecule `CCCC[C@H](S)C(=O)N[C@@H](CC(=O)O)C(=O)N[C@@H](Cc1c[nH]c2ccccc12)C(=O)O` [Example 95, N-[1-Carboxy-2-(1H-indol-3-yl)-ethyl]-3-(2-mercapto-hexanoylamino)-succinamic acid], the 50% inhibitory concentration (IC50) came to 7 nM. This IC50 is about 1.8-fold higher than that of the molecule before.

`O=C(O)C[C@H](NC(=O)[C@@H](S)CCc1ccccc1)C(=O)N[C@@H](Cc1c[nH]c2ccccc12)C(=O)O` [Example 96, N-[1-Carboxy-2-(1H-indol-3-yl)-ethyl]-3-(2-mercapto-4-phenyl-butyrylamino)-succinamic acid]: the IC50 came out at 4 nM.

Regarding `O=C(O)C[C@H](NC(=O)[C@@H](S)c1ccccc1)C(=O)N[C@@H](Cc1c[nH]c2ccccc12)C(=O)O` [Example 97, N-[1-Carboxy-2-(1H-indol-3-yl)-ethyl]-3-(2-mercapto-2-phenyl-acetylamino)-succinamic acid], the 50% inhibitory concentration (IC50) stood at 3 nM.

As to `O=C(O)C[C@H](NC(=O)[C@@H](S)Cc1ccc(-c2ccccc2)cc1)C(=O)N[C@@H](Cc1c[nH]c2ccccc12)C(=O)O` [Example 98, 3-(3-Biphenyl-4-yl-2-mercapto-propionylamino)-N-[1-Carboxy-2-(1H-indol-3-yl)-ethyl]-succinamic acid], inhibition was half-maximal at 8 nM (IC50).

Molecule `O=C(O)C[C@H](NC(=O)[C@@H](S)Cc1ccc(OCc2ccccc2)cc1)C(=O)N[C@@H](Cc1c[nH]c2ccccc12)C(=O)O` [Example 99, 3-(3-(4-Benzyloxy-phenyl)-2-mercapto-propionylamino)-N-[1-Carboxy-2-(1H-indol-3-yl)-ethyl]-succinamic acid] came in with an IC50 of 8 nM.

`O=C(O)C[C@H](NC(=O)[C@@H](S)Cc1ccc(F)cc1)C(=O)N[C@@H](Cc1c[nH]c2ccccc12)C(=O)O` [Example 100, N-[1-Carboxy-2-(1H-indol-3-yl)-ethyl]-3-[3-(4-fluoro-phenyl)-2-mercapto-propionylamino]-succinamic acid] returned a concentration for half-maximal inhibition (IC50) of 6 nM.

In turn, `COc1ccc(C[C@H](S)C(=O)N[C@@H](CC(=O)O)C(=O)N[C@@H](Cc2c[nH]c3ccccc23)C(=O)O)cc1` [Example 101, N-[1-Carboxy-2-(1H-indol-3-yl)ethyl]-3-[2-mercapto-3-(methoxy-phenyl)-propionylamino]-succinamic acid] returned a half-maximal inhibitory concentration (IC50) of 18 nM.

With `O=C(O)C[C@H](NC(=O)[C@@H](S)CC1CCCCC1)C(=O)N[C@@H](Cc1c[nH]c2ccccc12)C(=O)O` [Example 102, N-[1-Carboxy-2-(1H-indol-3-yl)-ethyl]-3-(3-cyclohexyl-2-mercapto-propionylamino)-succinamic acid], the 50% inhibitory concentration (IC50) was 20 nM.

`O=C(O)C[C@H](NC(=O)[C@@H](S)Cc1c[nH]c2ccccc12)C(=O)N[C@@H](Cc1c[nH]c2ccccc12)C(=O)O` [Example 103, N-[1-Carboxy-2-(1H-indol-3-yl)-ethyl]-3-[3-(1H-indol-3-yl)-2-mercapto-propionylamino]-succinamic acid] returned a half-maximal inhibitory concentration (IC50) of 22 nM.

`O=C(O)C[C@H](NC(=O)[C@@H](S)Cc1ccc2ccccc2c1)C(=O)N[C@@H](Cc1c[nH]c2ccccc12)C(=O)O` [Example 104, N-[1-Carboxy-2-(1H-indol-3-yl)-ethyl]-3-(2-mercapto-3-naphthalen-2-yl-propionylamino]-succinamic acid] displayed a half-inhibitory concentration (IC50) of 15 nM.

The molecule `O=C(O)C[C@H](NC(=O)[C@@H](S)Cc1ccccc1)C(=O)N[C@@H](Cc1ccc2ccccc2c1)C(=O)O` [Example 106, N-(1-Carboxy-2-naphthalen-2-yl-ethyl)-3-(2-mercapto-3-phenylpropionylamino)-succinamic acid] came in with an IC50 of 6 nM.

Turning to `O=C(O)C[C@H](NC(=O)[C@@H](S)Cc1ccccc1)C(=O)N[C@@H](CO)C(=O)O` [Example 107, N-(1-Carboxy-2-hydroxy-ethyl)-3-(2-mercapto-3-phenyl-propionylamino)-succinamic acid], the IC50 was 170 nM.

Turning to `O=C(O)C[C@H](NC(=O)[C@@H](S)Cc1ccccc1)C(=O)N[C@@H](Cc1ccc(O)cc1)C(=O)O` [Example 108, N-[1-Carboxy-2-(4-hydroxy-phenyl)-ethyl]-3-(2-mercapto-3-phenyl-propionylamino)-succinamic acid], half-maximal inhibition (IC50) required 7 nM. This IC50 lies about 24-fold lower than the previous one.

Turning to `O=C(O)C[C@H](NC(=O)[C@@H](S)Cc1ccccc1)C(=O)N[C@@H](Cc1ccccc1)C(=O)O` [Example 109, N-[1-Carboxy-2-phenyl-ethyl)-3-(2-mercapto-3-phenyl-propionylamino)-succinamic acid], the 50% inhibitory concentration (IC50) was 7 nM.

`O=C(O)C[C@H](NC(=O)[C@@H](S)Cc1ccccc1)C(=O)N[C@@H](Cc1ccc(-c2ccccc2)cc1)C(=O)O` [Example 110, N-(2-Biphenyl-4-yl-1-Carboxy-ethyl)-3-(2-mercapto-3-phenyl-propionylamino)-succinamic acid] displayed a 50% inhibitory concentration (IC50) of 38 nM.

As to `O=C(O)C[C@H](NC(=O)[C@@H](S)Cc1ccccc1)C(=O)N[C@H](CO)Cc1ccccc1` [Example 111, N-(1-Benzyl-2-hydroxy-ethyl)-3-(2-mercapto-3-phenyl-propionylamino)-succinamic acid], inhibition was half-maximal at 90 nM (IC50).

Molecule `O=C(O)C[C@@H](NC(=O)[C@@H](S)Cc1ccccc1)C(=O)N[C@@H](Cc1c[nH]c2ccccc12)C(=O)O` [Example 112, N-[1-Carboxy-2-(1H-indol-3-yl)-ethyl]-3-(2-mercapto-3-phenyl-propionylamino)-succinamic acid] displayed a 50% inhibitory concentration (IC50) of 15 nM.

With `O=C(O)CC[C@H](NC(=O)[C@@H](S)Cc1ccccc1)C(=O)N[C@@H](Cc1c[nH]c2ccccc12)C(=O)O` [Example 114], the IC50 came out at 320 nM. Compared with the last molecule, the IC50 is about 21-fold higher.

For the molecule `CNC(=O)[C@H](Cc1c[nH]c2ccccc12)NC(=O)[C@H](CC(=O)O)NC(=O)CS` [Example 115, N-[2-(1H-indol-3-yl)-methylcarbamoyl-ethyl]-3-(2-mercapto-acetylamino)-succinamic acid], half-maximal inhibition (IC50) required 1300 nM.
